According to US20250304620A1, “ANTIMICROBIAL PEPTIDE AND APPLICATION THEREOF” (priority 2023, published 2025):
≈ marks a conversion by molar mass, not a printed value. Marks after values point to notes of the source that are not given here. Non-standard residues stand in square brackets, D forms with d. Residues, ends and D or L forms follow the SMILES beside them. dPhe(3,4-F2) = N[C@H](Cc1ccc(F)c(F)c1)C(=O)O; d2Nal = N[C@H](Cc1ccc2ccccc2c1)C(=O)O

How the values were obtained:
[1] = tested on: Bacillus subtilis ATCC 6633; assay type: cell-based
Summary of the method: (§1)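 Five parallel repeats; twofold dilution series of each peptide per US CLSI susceptibility protocol; endpoint = MIC.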

[2] = tested on: Candida albicans ATCC MYA-2876; assay type: cell-based
Summary of the method: as §1

[3] = tested on: Candida glabrata ATCC 15126; assay type: cell-based
Summary of the method: as §1

[4] = tested on: Candida krusei ATCC 6258; assay type: cell-based
Summary of the method: as §1

[5] = tested on: Candida utilis ATCC 9950; assay type: cell-based
Summary of the method: as §1

[6] = tested on: Corynebacterium ATCC 7715; assay type: cell-based
Summary of the method: as §1

[7] = tested on: Klebsiella pneumoniae ATCC 700603; assay type: cell-based
Summary of the method: as §1

[8] = tested on: Pseudomonas aeruginosa ATCC 27853; assay type: cell-based
Summary of the method: as §1

[9] = tested on: Salmonella typhimurium ATCC 14028; assay type: cell-based
Summary of the method: as §1

[10] = tested on: Serratia marcescens ATCC 29021; assay type: cell-based
Summary of the method: as §1

[11] = tested on: Staphylococcus aureus ATCC 25923; assay type: cell-based
Summary of the method: as §1

[12] = tested on: Shigella flexneri ATCC 12022; assay: MIC against clinically common bacterial strain; assay type: cell-based
Summary of the method: as §1

[13] = tested on: Methicillin-resistant Staphylococcus aureus (MRSA); assay type: cell-based; details: Methicillin-resistant
Summary of the method: (§2)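 Read-out is the minimum inhibitory concentration, obtained by twofold serial dilution in microdilution format per CLSI guidance, with five parallel runs.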

[14] = tested on: carbapenem-resistant Escherichia coli (CREC); assay type: cell-based; details: carbapenem-resistant (CREC)
Summary of the method: as §2

[15] = tested on: carbapenem-resistant Klebsiella pneumoniae (CRKP); assay type: cell-based; details: carbapenem-resistant (CRKP)
Summary of the method: as §2

[16] = tested on: carbapenem-resistant Pseudomonas aeruginosa (CRPA); assay type: cell-based; details: carbapenem-resistant (CRPA)
Summary of the method: as §2

[17] = tested on: vancomycin-resistant Enterococcus (VRE); assay type: cell-based
Summary of the method: as §2

[18] = tested on: rabbit red blood cells; assay type: cell-based; details: red cells of rabbit, 1 h
[19] = tested on: Pseudomonas aeruginosa ATCC 27853; assay: Injectable formulations on mice infected with peritonitis; assay type: in vivo, ICR mice; details: twice a day for 3 days; for Number of mice that died on each day after infection: day 1 / Number of mice that died on each day after infection: day 2 / Number of mice that died on each day after infection: day 3 / Number of mice that died on each day after infection: day 4 / Number of mice that died on each day after infection: day 5 / Average survival times (Days): n = 10; for Average survival times (Days): observed for 14 d
Summary of the method: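 Survival readout: deaths and survival time tracked for 14 d. Treatment was tail-vein injection by body weight, twice a day for 3 consecutive days, starting right after intraperitoneal challenge with 0.2 mL of 1×10^9 CFU/mL P. aeruginosa ATCC 27853 in male and female ICR mice.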

[20] = Serum stability assay (residual level by RP-HPLC); details: human

Row | Compound | MIC Bacillus subtilis ATCC 6633 [1] [µg/mL] | MIC Candida albicans ATCC MYA-2876 [2] [µg/mL] | MIC Candida glabrata ATCC 15126 [3] [µg/mL] | MIC Candida krusei ATCC 6258 [4] [µg/mL] | MIC Candida utilis ATCC 9950 [5] [µg/mL] | MIC Corynebacterium ATCC 7715 [6] [µg/mL] | MIC Klebsiella pneumoniae ATCC 700603 [7] [µg/mL] | MIC Pseudomonas aeruginosa ATCC 27853 [8] [µg/mL] | MIC Salmonella typhimurium ATCC 14028 [9] [µg/mL] | MIC Serratia marcescens ATCC 29021 [10] [µg/mL] | MIC Staphylococcus aureus ATCC 25923 [11] [µg/mL] | MIC Shigella flexneri ATCC 12022 [12] [µg/mL] | MIC MRSA [13] [µg/mL] | MIC CREC [14] [µg/mL] | MIC CRKP [15] [µg/mL] | MIC CRPA [16] [µg/mL] | MIC VRE [17] [µg/mL] | MHC (minimum hemolytic concentration, lowest concentration causing 10% hemolysis) [18] [µg/mL] | Number of mice that died on each day after infection: day 1 ([19]; 1 mg/kg via tail vein) [Mouse] | Number of mice that died on each day after infection: day 2 ([19]; 1 mg/kg via tail vein) [Mouse] | other results
1 | CC(=O)N[C@H](CCCCN)C(=O)N[C@H](CCCNC(=N)N)C(=O)N[C@H](CC(C)C)C(=O)N[C@H](CC(C)C)C(=O)N[C@H](Cc1ccc2ccccc2c1)C(=O)N[C@H](CCCCN)C(=O)N[C@H](CC(C)C)C(=O)N[C@H](CCCCN)C(=O)N[C@H](Cc1ccc2ccccc2c1)C(=O)N[C@H](CCCCN)C(=O)N[C@H](CCCNC(=N)N)C(N)=O [LV-23] (Ac-[dK][dR][dL][dL][d2Nal][dK][dL][dK][d2Nal][dK][dR]-NH2) | 4 (≈ 2.47 µM) | 16 (≈ 9.89 µM) | 8 (≈ 4.94 µM) | 4 (≈ 2.47 µM) | 8 (≈ 4.94 µM) | 4 (≈ 2.47 µM) | 4 (≈ 2.47 µM) | 2 (≈ 1.24 µM) | 2 (≈ 1.24 µM) | 8 (≈ 4.94 µM) | 1 (≈ 0.618 µM) | 2 (≈ 1.24 µM) | 4 (≈ 2.47 µM) | 2 (≈ 1.24 µM) | 8 (≈ 4.94 µM) | 4 (≈ 2.47 µM) | 4 (≈ 2.47 µM) | >1000 | 1 | 1 | Number of mice that died on each day after infection: day 3 ([19]; 1 mg/kg via tail vein): 0 Mouse; Number of mice that died on each day after infection: day 4 ([19]; 1 mg/kg via tail vein): 2 Mouse; Number of mice that died on each day after infection: day 5 ([19]; 1 mg/kg via tail vein): 0 Mouse; Average survival times (Days) ([19]; 1 mg/kg via tail vein): 9.5*** Days; remaining at 12 h, 0.91 mg/mL [20]: 97.5%
2 | CC(=O)N[C@H](CCCNC(=N)N)C(=O)N[C@H](CCCNC(=N)N)C(=O)N[C@H](CC(C)C)C(=O)N[C@H](CC(C)C)C(=O)N[C@H](Cc1ccc2ccccc2c1)C(=O)N[C@H](CCCCN)C(=O)N[C@H](CC(C)C)C(=O)N[C@H](CCCCN)C(=O)N[C@H](Cc1ccc2ccccc2c1)C(=O)N[C@H](CCCCN)C(=O)N[C@H](CCCNC(=N)N)C(N)=O [LV-24] (Ac-[dR][dR][dL][dL][d2Nal][dK][dL][dK][d2Nal][dK][dR]-NH2) | 2 (≈ 1.21 µM) | 8 (≈ 4.86 µM) | 4 (≈ 2.43 µM) | 8 (≈ 4.86 µM) | 8 (≈ 4.86 µM) | 4 (≈ 2.43 µM) | 4 (≈ 2.43 µM) | 2 (≈ 1.21 µM) | 1 (≈ 0.607 µM) | 2 (≈ 1.21 µM) | 1 (≈ 0.607 µM) | 2 (≈ 1.21 µM) | 4 (≈ 2.43 µM) | 8 (≈ 4.86 µM) | 4 (≈ 2.43 µM) | 8 (≈ 4.86 µM) | 2 (≈ 1.21 µM) | >1000 | 1 | 2 | Number of mice that died on each day after infection: day 3 ([19]; 1 mg/kg via tail vein): 0 Mouse; Number of mice that died on each day after infection: day 4 ([19]; 1 mg/kg via tail vein): 0 Mouse; Number of mice that died on each day after infection: day 5 ([19]; 1 mg/kg via tail vein): 1 Mouse; Average survival times (Days) ([19]; 1 mg/kg via tail vein): 9.4*** Days; remaining at 12 h, 0.91 mg/mL [20]: 98.3%
3 | CC(=O)N[C@H](CCCCN)C(=O)N[C@H](CCCCN)C(=O)N[C@H](CC(C)C)C(=O)N[C@H](CC(C)C)C(=O)N[C@H](Cc1ccc(F)c(F)c1)C(=O)N[C@H](CCCNC(=N)N)C(=O)N[C@H](CC(C)C)C(=O)N[C@H](CCCCN)C(=O)N[C@H](Cc1ccc(F)c(F)c1)C(=O)N[C@H](CCCNC(=N)N)C(=O)N[C@H](CCCCN)C(N)=O [LV-25] (Ac-[dK][dK][dL][dL][dPhe(3,4-F2)][dR][dL][dK][dPhe(3,4-F2)][dR][dK]-NH2) | 8 (≈ 5.03 µM) | 8 (≈ 5.03 µM) | 8 (≈ 5.03 µM) | 8 (≈ 5.03 µM) | 8 (≈ 5.03 µM) | 2 (≈ 1.26 µM) | 8 (≈ 5.03 µM) | 1 (≈ 0.629 µM) | 1 (≈ 0.629 µM) | 4 (≈ 2.52 µM) | 2 (≈ 1.26 µM) | 2 (≈ 1.26 µM) | 2 (≈ 1.26 µM) | 4 (≈ 2.52 µM) | 8 (≈ 5.03 µM) | 4 (≈ 2.52 µM) | 8 (≈ 5.03 µM) | >1000 | 0 | 1 | Number of mice that died on each day after infection: day 1 ([19]; 0.2 mg/kg via tail vein): 2 Mouse; Number of mice that died on each day after infection: day 2 ([19]; 0.2 mg/kg via tail vein): 1 Mouse; Number of mice that died on each day after infection: day 3 ([19]; 0.2 mg/kg via tail vein): 1 Mouse; Number of mice that died on each day after infection: day 4 ([19]; 0.2 mg/kg via tail vein): 1 Mouse; Number of mice that died on each day after infection: day 5 ([19]; 0.2 mg/kg via tail vein): 1 Mouse; Average survival times (Days) ([19]; 0.2 mg/kg via tail vein): 7.2** Days; Number of mice that died on each day after infection: day 3 ([19]; 1 mg/kg via tail vein): 1 Mouse; Number of mice that died on each day after infection: day 4 ([19]; 1 mg/kg via tail vein): 0 Mouse; Number of mice that died on each day after infection: day 5 ([19]; 1 mg/kg via tail vein): 1 Mouse; Average survival times (Days) ([19]; 1 mg/kg via tail vein): 10.8**** Days; Number of mice that died on each day after infection: day 1 ([19]; 5 mg/kg via tail vein): 0 Mouse; Number of mice that died on each day after infection: day 2 ([19]; 5 mg/kg via tail vein): 3 Mouse; Number of mice that died on each day after infection: day 3 ([19]; 5 mg/kg via tail vein): 0 Mouse; Number of mice that died on each day after infection: day 4 ([19]; 5 mg/kg via tail vein): 0 Mouse; Number of mice that died on each day after infection: day 5 ([19]; 5 mg/kg via tail vein): 0 Mouse; Average survival times (Days) ([19]; 5 mg/kg via tail vein): 10.4**** Days; survival time of mice infected with Pseudomonas aeruginosa ([19]; tail vein, observed 14 d): superior to those of the Levofloxacin group; remaining at 12 h, 0.91 mg/mL [20]: 97.8%
